From patent US10932472B2, “Coffee extract and its agrochemical use against plant pathogens” (KAMAD KNOWLEDGE SOLUTIONS SL, priority 2013, dated 2021) come the findings set out here.

Conditions in all cases: in vitro conditions
In one test the test system is Phytophthora capcisi. In words: In vitro inhibition of mycelial growth on amended PDA media. The format is cell-based. As for the experimental part: (§1) Additionally, an in vitro efficacy test was performed in order to determine the effect of PA5 against other Phytopathogens. Each pathogen strain was exposed to 0.5 and 2 cc/l, amended to PDA media. The inhibition percentage was evaluated against the control during 7 days.

For the next test, the system named is Botrytis cinerea. The description is as above. The class given is cell-based. The protocol: as §1
For a further test, the system named is Collectotrichum sp. Described as above. The class given is cell-based. As for the experimental part: as §1
Test [1] deals with coffee leaf rust uredospores. Put plainly: In vitro germination of coffee leaf rust uredospores (laboratory tests 2013). The class given is cell-based, Hemileia vastarix. As for the experimental part:
A laboratory methodology to understand the mode of action of PA1 (1%) was developed. The efficacy was performed using coffee leaf rust uredospores, collected in the field.

With `O=C(O)c1ccc(O)c(O)c1` [PA, 3,4-dihydroxybenzoic acid], the growth inhibition result in the test on Phytophthora capcisi, in the test with Botrytis cinerea and with Collectotrichum sp was “inhibits the growth” each time. For the same compound, the “concentration with direct fungicide action on uredospores germination” value in test [1] turned out to be 0.25 mg/mL.
